The target in assay [1] is Receptor-interacting serine/threonine-protein kinase 3 (Homo sapiens) (UniProt Q9Y572). As to the kind of experiment: Inhibition of full length RIP3 (unknown origin) assessed as substrate phosphorylation using MBP and ATP as substrate at 1 uM preincubated for 15 mins followed by substrate addition and measured after 90 mins by ADP-Glo luminescence assay; values are per cent of control. Particulars: time 105.0 min.

Assay [2] addresses T1, Receptor-interacting serine/threonine-protein kinase 1 (Homo sapiens) (UniProt Q13546).
T1 sequence (whole entry): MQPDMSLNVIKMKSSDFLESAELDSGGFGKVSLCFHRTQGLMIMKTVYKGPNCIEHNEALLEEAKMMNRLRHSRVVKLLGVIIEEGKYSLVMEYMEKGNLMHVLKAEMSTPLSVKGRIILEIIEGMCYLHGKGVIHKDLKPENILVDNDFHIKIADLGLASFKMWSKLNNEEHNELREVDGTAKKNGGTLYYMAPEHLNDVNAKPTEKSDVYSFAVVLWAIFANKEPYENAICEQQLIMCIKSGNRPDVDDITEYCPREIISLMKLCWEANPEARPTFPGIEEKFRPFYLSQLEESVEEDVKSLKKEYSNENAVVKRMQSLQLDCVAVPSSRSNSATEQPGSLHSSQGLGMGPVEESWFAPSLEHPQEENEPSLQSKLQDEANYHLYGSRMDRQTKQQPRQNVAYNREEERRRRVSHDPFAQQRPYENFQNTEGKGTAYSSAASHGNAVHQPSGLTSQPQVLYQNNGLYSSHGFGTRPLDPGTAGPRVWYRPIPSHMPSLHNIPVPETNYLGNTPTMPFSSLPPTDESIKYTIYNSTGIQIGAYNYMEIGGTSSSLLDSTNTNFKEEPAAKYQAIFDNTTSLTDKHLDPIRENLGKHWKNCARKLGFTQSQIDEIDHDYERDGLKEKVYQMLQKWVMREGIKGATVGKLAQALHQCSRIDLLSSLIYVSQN
The assay is described as follows: Inhibition of RIP1 (1 to 375 residues) (unknown origin) assessed as substrate phosphorylation using MBP and ATP as substrate at 1 uM preincubated for 15 mins followed by substrate addition and measured after 90 mins by ADP-Glo luminescence assay; values are per cent of control. The conditions noted are these: time 105.0 min. (In general: ADP-Glo turns the ADP formed in a reaction into a luminescent signal.)

Assay [3] concerns the target T1, Receptor-interacting serine/threonine-protein kinase 1 (Homo sapiens). As to the kind of experiment: Inhibition of RIP1 (1 to 375 residues) (unknown origin) assessed as substrate phosphorylation using MBP and ATP as substrate at 10 uM preincubated for 15 mins followed by substrate addition and measured after 90 mins by ADP-Glo luminescence assay; values are per cent of control. Particulars: time 105.0 min.

Assay [4] deals with Receptor-interacting serine/threonine-protein kinase 3 (Homo sapiens) (UniProt Q9Y572). As to the kind of experiment: Inhibition of full length RIP3 (unknown origin) assessed as substrate phosphorylation using MBP and ATP as substrate at 10 uM preincubated for 15 mins followed by substrate addition and measured after 90 mins by ADP-Glo luminescence assay; values are per cent of control. The conditions noted are these: time 105.0 min.

Assay [5] has as its system HT-29. The assay is described as follows: Anti-necroptic activity in human HT-29 cells assessed as inhibition of TSZ (TNFalpha, Smac mimetic and z-VAD-FMK) induced necroptosis incubated for 24 hrs by celltiter-glo luminescent cell viability assay. It counts as functional, cell-based. The conditions noted are these: HT-29, 24 h.
Assay [6] deals with T2, Mixed lineage kinase domain-like protein (Homo sapiens) (UniProt Q8NB16).
T2 sequence (whole entry): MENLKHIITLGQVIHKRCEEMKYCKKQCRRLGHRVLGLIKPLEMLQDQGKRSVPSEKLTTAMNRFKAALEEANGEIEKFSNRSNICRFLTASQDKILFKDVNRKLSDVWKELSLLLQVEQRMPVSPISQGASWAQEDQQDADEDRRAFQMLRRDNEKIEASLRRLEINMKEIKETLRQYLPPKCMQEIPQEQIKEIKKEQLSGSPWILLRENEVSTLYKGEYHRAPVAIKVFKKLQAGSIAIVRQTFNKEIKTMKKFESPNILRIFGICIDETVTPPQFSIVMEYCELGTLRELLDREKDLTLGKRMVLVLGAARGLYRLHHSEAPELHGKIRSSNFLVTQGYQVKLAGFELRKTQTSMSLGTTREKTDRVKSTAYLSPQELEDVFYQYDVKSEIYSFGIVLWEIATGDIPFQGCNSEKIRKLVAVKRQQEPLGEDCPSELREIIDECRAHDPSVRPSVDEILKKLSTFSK
The assay is described as follows: Inhibition of human MLKL in human HT-29 cells assessed as inhibition of TSZ (TNFalpha, Smac mimetic and z-VAD-FMK) induced MLKL oligomerization at 5 uM and measured after 6 hrs by immunoblot assay. It counts as cell-based.

Assay [7] has as its system HT-29. The assay is described as follows: Anti-necroptic activity in human HT-29 KO cells expressing MLKL K157A mutant assessed as inhibition of TSZ (TNFalpha, Smac mimetic and z-VAD-FMK) induced MLKL K157A mutant mediated necroptosis incubated for 24 hrs by celltiter-glo luminescent cell viability assay. It counts as functional, cell-based. (In general: ATP-based viability assays read luminescence as a measure of living cells.)

The target of assay [8] is T2, Mixed lineage kinase domain-like protein (Homo sapiens). The assay is described as follows: Inhibition of FLAG-tagged human MLKL in human HT-29 cells assessed as inhibition of TSZ (TNFalpha, Smac mimetic and z-VAD-FMK) induced MLKL phosphorylation at 1 uM and measured after 8 hrs by Hoechst 33342 staining based immunofluorescence analysis. Type of assay: cell-based.

The target in assay [9] is T1, Receptor-interacting serine/threonine-protein kinase 1 (Homo sapiens). As to the kind of experiment: Inhibition of TSZ (TNFalpha, Smac mimetic and z-VAD-FMK) induced RIPK1 phosphorylation in human HT-29 cells assessed as decrease in phosphorylated RIPK1 level incubated for 8 hrs by western blot analysis. It counts as cell-based. Background: A western blot detects proteins with antibodies after separation by electrophoresis.

A further assay has as its system MEF. As to the kind of experiment: Anti-necroptic activity in mouse MEF cells assessed as inhibition of TSZ (TNFalpha, Smac mimetic and z-VAD-FMK) induced necroptosis incubated for 24 hrs by celltiter-glo luminescent cell viability assay. Type of assay: functional, cell-based.

Calls of active or inactive are those of the source. The rule behind the calls is not given here.

Chain of Receptor-interacting serine/threonine-protein kinase 3 (Homo sapiens) (Q9Y572 whole entry, looked up): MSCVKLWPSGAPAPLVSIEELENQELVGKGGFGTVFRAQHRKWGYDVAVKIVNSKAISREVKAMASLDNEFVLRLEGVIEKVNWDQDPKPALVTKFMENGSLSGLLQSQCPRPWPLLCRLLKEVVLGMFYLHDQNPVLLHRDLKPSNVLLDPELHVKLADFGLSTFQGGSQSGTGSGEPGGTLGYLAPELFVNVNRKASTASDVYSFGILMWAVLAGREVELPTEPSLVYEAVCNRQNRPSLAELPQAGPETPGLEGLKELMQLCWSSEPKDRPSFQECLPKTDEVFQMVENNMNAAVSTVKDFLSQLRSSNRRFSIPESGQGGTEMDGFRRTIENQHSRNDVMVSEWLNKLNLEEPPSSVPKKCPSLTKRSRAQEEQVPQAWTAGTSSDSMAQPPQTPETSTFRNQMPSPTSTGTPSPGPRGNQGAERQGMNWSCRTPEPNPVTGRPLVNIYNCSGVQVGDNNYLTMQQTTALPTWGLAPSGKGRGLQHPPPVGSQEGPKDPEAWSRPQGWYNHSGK

Take `C=CC(=O)Nc1c(Cl)n(CC#Cc2cccc(O)c2)c(=O)n(C)c1=O`: the residual activity in assay [1] is 102%; in [2], 84.2%; in assay [3], 86.2%; in assay [4], 108%. For the same molecule, the EC50 with HT-29 [5] amounted to 950 nM.
`COc1nccnc1NSc1ccc(NC(=O)/C=C/c2ccc([N+](=O)[O-])s2)cc1`: the inhibition entry (in assay [6]; with HT-29 [7]) was “Active” throughout.
With `CCC(C)(C)C(=O)N(O)Cc1ccccc1`, the inhibition entry (in [8]; in assay [9]; with MEF) was “Active” in each case.
As for `Cc1ccc(CCC(=O)Nc2c(Cl)n(CC#Cc3ccc(N)cc3)c(=O)n(C)c2=O)cc1`, the EC50 in the assay with HT-29 [5] came to 1020 nM.
In the case of `Cn1c(=O)c(NC(=O)Cc2cccc(F)c2)c(Cl)n(CC#Cc2cccc(O)c2)c1=O`, the EC50 in the assay on HT-29 [5] was 2320 nM.
Still for that read-out and setting: the same measure for `C=CC(=O)Nc1c(OC)n(CC#Cc2cccc(O)c2)c(=O)n(C)c1=O`: over 10000 nM.
The same measure, in the same setting: as for `Cn1c(=O)c(NC(=O)Cc2ccc(F)cc2)c(Cl)n(CC#Cc2cccc(O)c2)c1=O`, the figure is 4600 nM.
As for `Cc1ccc(CCC(=O)Nc2c(Cl)n(CC#Cc3cccc(O)c3)c(=O)n(C)c2=O)cc1`, in the assay with HT-29 [5], the EC50 is 316 nM.
On to `Cc1ccc(CCC(=O)Nc2c(Cl)n(CC#Cc3ccc4[nH]ccc4c3)c(=O)n(C)c2=O)cc1`, for which the EC50 in the assay on HT-29 [5] was 332 nM.
For `COc1ccc(C#CCn2c(Cl)c(NC(=O)CCc3ccc(C)cc3)c(=O)n(C)c2=O)cc1Cn1cccc(OC)c1=O`, the residual activity turned out to be 96.3% in assay [1], 111% in assay [2], 101% in [3] and 99.3% in assay [4]. Further, in the assay on HT-29 [5], the EC50 was found to be 85 nM.
For the molecule `Cc1ccc(CCC(=O)Nc2c(Cl)n(CC#Cc3ccc4c(c3)CCC(=O)N4)c(=O)n(C)c2=O)cc1`, the residual activity in [1] was 102%; in [2] it was 109%; in assay [3], 94.5%; in assay [4], 90.5%. For the same molecule, the EC50 in the assay on HT-29 [5] came to 132 nM.
`Cn1c(=O)c(NC(=O)Cc2ccccc2)c(Cl)n(CC#Cc2cccc(O)c2)c1=O`: the EC50 in the assay with HT-29 [5] stood at 1490 nM.
Still for that read-out and setting: as for `Cn1c(=O)c(NC(=O)Cc2ccc(Cl)cc2)c(Cl)n(CC#Cc2cccc(O)c2)c1=O`, the figure is 3770 nM; as for `Cn1c(=O)c(NC(=O)CCc2ccc(Cl)cc2)c(Cl)n(CC#Cc2cccc(O)c2)c1=O`, 540 nM.
The same measure, in the same setting: as for `CCCCCCCC(=O)Nc1c(Cl)n(CC#Cc2cccc(O)c2)c(=O)n(C)c1=O`, the figure is 2340 nM; as for `C=CC(=O)Nc1cn(CC#Cc2cccc(O)c2)c(=O)n(C)c1=O`, over 10000 nM; as for `Cn1c(=O)c(NC(=O)CCCc2ccccc2)c(Cl)n(CC#Cc2cccc(O)c2)c1=O`, over 10000 nM.
For the molecule `Cn1c(=O)c(NC(=O)CCc2ccccc2F)c(Cl)n(CC#Cc2cccc(O)c2)c1=O`, in the assay on HT-29 [5], the EC50 stood at 829 nM.
Regarding `COc1cccn(Cc2cc(C#CCn3c(Cl)c(NC(=O)CCc4ccc(C)cc4)c(=O)n(C)c3=O)ccc2Cl)c1=O`, in the assay on HT-29 [5], the EC50 is 90 nM.
With `CC(=O)Nc1ccc(C#CCn2c(Cl)c(NC(=O)CCc3ccc(C)cc3)c(=O)n(C)c2=O)cc1`, the EC50 in the assay on HT-29 [5] was 717 nM.
For `Cc1ccc(CCC(=O)Nc2c(Cl)n(CC#Cc3cccc(N)c3)c(=O)n(C)c2=O)cc1`, the EC50 in the assay with HT-29 [5] was determined as 1060 nM.
`Cn1c(=O)c(NC(=O)CC(C)(C)C)c(Cl)n(CC#Cc2cccc(O)c2)c1=O`: in the assay with HT-29 [5], the EC50 worked out at 5280 nM.
In the case of `Cc1ccc(CCC(=O)Nc2c(Cl)n(CC#Cc3ccc(F)c(Cn4ccccc4=O)c3)c(=O)n(C)c2=O)cc1`, the EC50 in the assay with HT-29 [5] was determined as 139 nM.
As to `Cc1ccc(CCC(=O)Nc2c(Cl)n(CC#Cc3ccc(Cn4ccccc4=O)cc3)c(=O)n(C)c2=O)cc1`, the EC50 with HT-29 [5] was found to be 168 nM.
Consider `Cc1ccc(CCC(=O)Nc2c(Cl)n(CC#Cc3cccc(NC(=O)c4ccccc4)c3)c(=O)n(C)c2=O)cc1`, for which, in the assay on HT-29 [5], the EC50 is 1000 nM.
`Cn1c(=O)c(NC(=O)c2ccccc2)c(Cl)n(CC#Cc2cccc(O)c2)c1=O`: the EC50 in the assay on HT-29 [5] is over 10000 nM.
As for `Cn1c(=O)c(NC(=O)Cc2ccccc2F)c(Cl)n(CC#Cc2cccc(O)c2)c1=O`, the EC50 in the assay with HT-29 [5] was found to be 3350 nM.
Take `Cc1ccc(CCC(=O)Nc2c(Cl)n(CC#Cc3cccc(Cn4c(C)cccc4=O)c3)c(=O)n(C)c2=O)cc1`: the EC50 with HT-29 [5] came out at 122 nM.
Turning to `Cc1ccc(C(=O)Nc2ccc(CN3CCN(C)CC3)c(C(F)(F)F)c2)cc1C#Cc1cnc2cccnn12` [PONATINIB], the residual activity was found to be 0.97% in assay [1], 3.8% in [2], 0.4% in [3] and 0.31% in assay [4]. Further, the EC50 with HT-29 [5] is 440 nM.
Take `CCC(C)(C)C(=O)Nc1c(Cl)n(CC#Cc2cccc(O)c2)c(=O)n(C)c1=O`: in the assay with HT-29 [5], the EC50 is over 10000 nM.
For the molecule `Cc1ccc(CCC(=O)Nc2c(Cl)n(CC#Cc3ccc(Cl)c(Cn4ccccc4=O)c3)c(=O)n(C)c2=O)cc1`, in the assay on HT-29 [5], the EC50 was determined as 110 nM.
On the same count and under the same terms, the same measure for `CCC(=O)Nc1c(Cl)n(CC#Cc2cccc(O)c2)c(=O)n(C)c1=O`: 3380 nM; for `Cc1ccc(CCC(=O)Nc2c(Cl)n(CC#Cc3cccc(Cn4ccccc4=O)c3)c(=O)n(C)c2=O)cc1`: 136 nM; for `COc1ccn(Cc2cccc(C#CCn3c(Cl)c(NC(=O)CCc4ccc(C)cc4)c(=O)n(C)c3=O)c2)c(=O)c1`: 93 nM.
As for `Cc1ccc(CCC(=O)Nc2c(Cl)n(CC#Cc3ccc(O)cc3)c(=O)n(C)c2=O)cc1`, the residual activity amounted to 90.5% in assay [1], 92.1% in assay [2], 96.1% in assay [3] and 102% in assay [4]. Also, the EC50 in the assay on HT-29 [5] stood at 222 nM.

A word on the residual activity: it is the signal under treatment as a percentage of the control signal. The term EC50 denotes the concentration needed to bring the measured effect to its halfway point.

Source of the values: ChEMBL document CHEMBL5108050, “Discovery of a New Class of Uracil Derivatives as Potential Mixed Lineage Kinase Domain-like Protein (MLKL) Inhibitors” (J Med Chem, 2022).
